This is an account of results in patent publication US20250186418A1, “COMPOSITIONS CONTAINING NICOTINAMIDE AND VITAMIN B6 AND METHODS OF USING SUCH COMPOSITIONS FOR REHABILITATION” (SOCIETE DES PRODUITS NESTLE S.A., priority 2020, published 2025).

This assay relates to Human primary myoblasts. The assay is described as follows: Myogenic amplification and commitment of muscle stem cells (Pax7/MyoD staining of human primary myoblasts). The conditions noted are these: donors 1 and 2 pooled, normalized to total cell number, control DMSO 1%, 96 hours; for proportion of MyoD+ cells, fold change compared to the control condition: FIG. 1B/2B. Type of assay: cell-based. How it is done:
Human Skeletal Muscle Myoblasts were purchased from Lonza (https://bioscience.lonza.com). These cells were isolated from the upper arm or leg muscle tissue of normal donors and used after the second passage. Several donors were tested to ensure cell viability and purity before selecting the final donors, which are a person (refer thereafter as Donor 1), a person (refer thereafter as Donor 2) and a person (refer thereafter as Donor 3). Human primary myoblasts were seeded in 384 well plates at a density of 1'000 cells per well in skeletal muscle growth medium (SKM-M, AMSbio). For treatment, compounds were directly added to the myoblast cultures 16 hours after initial plating. All cultures were then grown for 96 hours. Cells were stained for Pax7 and MyoD expression using antibodies directed against Pax7 and MyoD and counterstained with Hoechst 33342 to visualize cell nuclei. Pax7+ cells are defined as cells that express Pax7 regardless of MyoD expression. […] Image acquisition was performed using the ImageXpress (Molecular Devices) platform. Custom module analysis based on Multi-Wavelength Cell Scoring of the MetaXpress software was used for quantification. *, **, ***, **** indicates difference from the control, One-way ANOVA, with p<0.05, p<0.01, p<0.001, p<0.0001, respectively. Data are presented as Mean+/−SEM Human primary myoblasts from different donors (donor 1, donor 2 or donor 3) were seeded in 384 well plates at a density of 1′000 cells per well in skeletal muscle growth medium (SKM-M, AMSbio). For treatment, compounds were directly added to the myoblast cultures 16 hours after initial plating. All cultures were then grown for 96 hours. Cells were stained for Pax7 and MyoD expression using antibodies directed against Pax7 and MyoD and counterstained with Hoechst 33342 to visualize cell nuclei. Pax7+ cells are defined as cells that express Pax7 regardless of MyoD expression. […] Image acquisition was performed using the ImageXpress (Molecular Devices) platform. Custom module analysis based on Multi-Wavelength Cell Scoring of the MetaXpress software was used for quantification. […]

`Cc1ncc(CO)c(CO)c1O` [Pyridoxine]: the “proportion of MyoD+ cells, fold change compared to the control condition” value is “increasing the proportion of differentiating (MyoD+) cells in a dose dependent manner”. Take `NC(=O)c1cccnc1` [Nicotinamide]: the “proportion of MyoD+ cells, fold change compared to the control condition” value is “increasing the proportion of both amplifying (Pax7+) and differentiating (MyoD+) cells in a dose dependent manner”. Moreover, the “proportion of Pax7+ cells, fold change compared to the control condition” value (FIG. 1A/2A) is “increasing the proportion of both amplifying (Pax7+) and differentiating (MyoD+) cells in a dose dependent manner”.
